Biological target: T1, Swiss Cheese (SWS) (Drosophila melanogaster, UniProt Q9U969)
T1 construct: native full-length SWS in fly head homogenate, not purified; sws1 null mutant used as control
Test: esterase activity in fly head homogenates
Type: biochemical
Conditions: untreated flies; activity very low in sws1 null, raised to about 160% with SWS overexpression

T1 sequence (Q9U969 whole entry): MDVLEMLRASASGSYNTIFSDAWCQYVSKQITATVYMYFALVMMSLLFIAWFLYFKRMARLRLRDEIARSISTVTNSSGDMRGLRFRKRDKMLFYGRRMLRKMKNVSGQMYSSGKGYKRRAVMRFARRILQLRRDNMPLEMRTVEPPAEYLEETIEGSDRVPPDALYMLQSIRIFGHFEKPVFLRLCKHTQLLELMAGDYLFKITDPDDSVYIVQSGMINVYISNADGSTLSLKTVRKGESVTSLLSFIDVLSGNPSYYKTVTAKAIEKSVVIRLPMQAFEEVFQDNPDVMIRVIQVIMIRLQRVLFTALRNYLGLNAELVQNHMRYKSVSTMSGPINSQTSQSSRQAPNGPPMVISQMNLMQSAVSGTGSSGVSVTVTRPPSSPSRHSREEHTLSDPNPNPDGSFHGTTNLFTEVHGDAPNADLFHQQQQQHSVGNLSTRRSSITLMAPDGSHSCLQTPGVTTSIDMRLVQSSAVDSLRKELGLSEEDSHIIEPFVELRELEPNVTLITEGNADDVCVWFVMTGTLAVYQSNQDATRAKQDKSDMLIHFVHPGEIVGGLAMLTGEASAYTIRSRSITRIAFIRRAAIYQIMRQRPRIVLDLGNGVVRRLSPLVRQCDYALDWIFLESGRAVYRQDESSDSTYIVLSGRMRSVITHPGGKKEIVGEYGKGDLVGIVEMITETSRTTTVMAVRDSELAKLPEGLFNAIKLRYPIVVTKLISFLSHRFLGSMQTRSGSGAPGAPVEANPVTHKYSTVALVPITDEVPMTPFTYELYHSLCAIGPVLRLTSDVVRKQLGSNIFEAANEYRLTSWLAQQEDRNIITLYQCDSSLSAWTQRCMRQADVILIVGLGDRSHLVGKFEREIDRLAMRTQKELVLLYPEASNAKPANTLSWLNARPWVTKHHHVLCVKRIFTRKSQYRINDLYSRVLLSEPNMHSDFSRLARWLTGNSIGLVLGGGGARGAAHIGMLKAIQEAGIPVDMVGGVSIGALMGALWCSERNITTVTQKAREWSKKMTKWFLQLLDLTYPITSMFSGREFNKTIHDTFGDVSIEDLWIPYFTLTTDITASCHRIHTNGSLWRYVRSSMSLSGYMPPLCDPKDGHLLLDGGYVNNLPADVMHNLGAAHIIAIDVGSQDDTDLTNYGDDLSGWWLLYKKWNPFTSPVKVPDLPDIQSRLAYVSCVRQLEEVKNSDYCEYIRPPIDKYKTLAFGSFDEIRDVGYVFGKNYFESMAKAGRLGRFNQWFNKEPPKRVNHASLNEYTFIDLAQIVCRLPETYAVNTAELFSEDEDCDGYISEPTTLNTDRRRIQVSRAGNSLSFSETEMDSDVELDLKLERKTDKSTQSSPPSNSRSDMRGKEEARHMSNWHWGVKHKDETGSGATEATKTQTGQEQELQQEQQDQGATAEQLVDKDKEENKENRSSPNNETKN

For `CCCCC(=O)Oc1ccccc1` [phenyl valerate], the “esterase activity in fly head homogenates” value was “hydrolyzing activity against phenyl valerate, a standard substrate to detect NTE activity”.
